This is an account of results in patent publication US20240025893A1, “PYRIMIDINE-AND NITROGEN-CONTAINING BICYCLIC COMPOUND” (Asahi Kasei Pharma Corporation, priority 2020, published 2024).

For assay [1], the system named is collagen-induced arthritis in Lewis rats. As to the kind of experiment: Rat collagen-induced arthritis model (footpad volume). The assay is classed as in vivo. Particulars: 19 days after first immunization. Here is the method:
Eight weeks old female Lewis rats (SLC Inc.) were immunized with bovine type II collagen (CII, Collagen Technical Study Session, product number K41) to induce arthritis. A 1:1 mixed emulsion of the incomplete Freund's adjuvant (Difco, Cat. 263910) and a 3 mg/mL solution of CII was prepared, and 0.7 mL of the emulsion was injected to each rat at seven sites in the tale base part and skins of both fore and hind legs in a volume of 0.1 mL per site. Booster immunization was performed after 7 days by injecting 0.2 mL of the same 1:1 mixed emulsion of the incomplete Freund's adjuvant and CII as that used in the first day at two sites in the tale base part in a volume of 0.1 mL per site. After 12 days, footpad volumes of the both hind feet of the animals were measured by using Plethysmometer (UGO BASILE, Cat. 37140), and the individual animals were divided into groups according to the footpad volume ratio based on that of the normal group and body weight. After they were divided into groups, administration of a test compound or a solvent (vehicle, 0.5% methylcellulose) was started, and it was orally administered twice a day for 7 days (provided that, on the day of grouping, the administration was performed only once after grouping). After the start of the administration, the footpad volumes of both hind feet of the animals were measured every other day or every 3 days by using Plethysmometer, and influence of the test compound was evaluated.
Average value of the footpad volumes was calculated for each individual on each measurement day by using Excel 2010 (Microsoft), and plotted as a graph by using GraphPadPrism 7.03 (GraphPad Software, Inc.). The normal group was defined to be a 100% suppression group, and the solvent administration group was defined to be a 0% suppression group. The suppression ratios based on these controls were calculated for each concentration of the test compound by using Excel 2010 (Microsoft).

The target in a further assay is human IRAK-4 (Homo sapiens (Human), UniProt Q9NWZ3). As to the kind of experiment: Measurement of human IRAK-4 inhibitory activity (TR-FRET, peptide substrate phosphorylation, 10 μM ATP). The assay is classed as biochemical. Particulars: 1 nM IRAK-4, 10 μM ATP, 23° C., 30 minutes; average values. Put shortly:
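With 1 nM IRAK-4, 0.5 μM biotinylated peptide and 10 μM ATP, compound incubated 30 min at 23 °C in 50 mM HEPES pH 7.2 with Mg2+/Mn2+. Stopped with EDTA plus europium-cryptate anti-phosphopeptide antibody and streptavidin-XL665, 60 min at 23 °C. Activity taken as the 665/620 nm TR-FRET ratio.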
In general terms: Time-resolved FRET reads energy transfer from a long-lived donor to a nearby acceptor.

Assay [2] relates to LPS-stimulated TNFα production in THP-1 cells. As to the kind of experiment: LPS-stimulated TNFα production inhibition test using human acute monocytic leukemia cell strain THP-1. It is filed as cell-based. Particulars: LPS 2.5 ng/mL, average values. A digest of the protocol: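 Readout was HTRF-measured TNFα in supernatants, calibrated against a standard curve, after LPS challenge (2.5 ng/mL final, 4 h) of THP-1 cells pretreated 1 h at 37 °C with compound. Unstimulated wells defined 100% suppression and vehicle wells 0%. IC50 was fitted with a 4-parameter logistic model.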

For orientation: IC50 means the concentration needed to halve the response being measured. A lower IC50 goes with greater potency in that assay.

Sequence of human IRAK-4 (Q9NWZ3 whole entry): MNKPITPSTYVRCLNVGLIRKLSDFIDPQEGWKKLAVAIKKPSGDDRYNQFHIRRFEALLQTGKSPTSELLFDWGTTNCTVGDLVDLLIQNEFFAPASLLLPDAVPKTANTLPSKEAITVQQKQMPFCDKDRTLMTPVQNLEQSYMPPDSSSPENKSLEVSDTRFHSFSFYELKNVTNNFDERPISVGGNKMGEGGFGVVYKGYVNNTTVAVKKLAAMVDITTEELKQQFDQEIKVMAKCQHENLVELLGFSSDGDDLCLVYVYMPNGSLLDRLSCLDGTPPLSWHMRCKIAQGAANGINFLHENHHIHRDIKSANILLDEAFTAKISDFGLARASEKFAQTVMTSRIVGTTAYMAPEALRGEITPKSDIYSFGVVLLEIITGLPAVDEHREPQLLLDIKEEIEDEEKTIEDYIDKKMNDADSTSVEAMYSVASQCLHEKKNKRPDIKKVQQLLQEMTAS

Regarding `COc1c(-c2cnc(CO[C@H]3CCC[C@@H]3O)nc2)ccc2nc(NC(=O)C3CC3)sc12` [c-01-01, N-(6-(2-((((1S,2S)-2-Hydroxycyclopentyl)oxy)methyl)pyrimidin-5-yl)-7-methoxybenzo[d]thiazol-2-yl)cyclopropanecarboxamide], the entries for the “suppression ratio (footpad volume)” value in assay [1] (20 mg/kg orally twice a day), in assay [1] (60 mg/kg orally twice a day) and in assay [1] (120 mg/kg orally twice a day) were 45%, 65% and 77%, respectively. For the same compound, the IC50 came out at 0.00392 µM on human IRAK-4 and 0.143 µM in assay [2] (Homo sapiens, THP-1, 4 h).
As to `C[C@@H]1C[C@H]1C(=O)Nc1cc2cc(-c3cnc(CO[C@H]4CCC[C@@H]4O)nc3)ccn2n1` [e-01-03], the concentration for half-maximal inhibition (IC50) against human IRAK-4 came out at 0.00103 µM; in assay [2] (Homo sapiens, THP-1, 4 h), 0.171 µM.
Consider `Cc1cc(C(=O)N2CCN([C@H]3C[C@@H](C(=O)Nc4cc5cc(-c6cnc(CO[C@H]7CCC[C@@H]7O)nc6)ccn5n4)C3)[C@@H](C)C2)ccn1` [e-02-01, (1R,3s)-N-(5-(2-((((1S,2S)-2-Hydroxycyclopentyl)oxy)methyl)pyrimidin-5-yl)pyrazolo[1,5-a]pyridin-2-yl)-3-((S)-2-methyl-4-(2-methylisonicotinoyl)piperazin-1-yl)cyclobutane-1-carboxamide], for which the IC50 was 0.00143 µM at human IRAK-4 and 0.077 µM in assay [2] (Homo sapiens, THP-1, 4 h).
As to `C[C@H]1CN(C(=O)c2cccnc2)CCN1[C@H]1C[C@@H](C(=O)Nc2cc3cc(-c4cnc(CO[C@H]5CCC[C@@H]5O)nc4)ccn3n2)C1` [e-02-02], the IC50 was found to be 0.00138 µM at human IRAK-4 and 0.123 µM in assay [2] (Homo sapiens, THP-1, 4 h).
Regarding `C[C@H]1CN(C(=O)c2ccc(C(F)(F)F)nc2)CCN1[C@H]1C[C@@H](C(=O)Nc2cc3cc(-c4cnc(CO[C@H]5CCC[C@@H]5O)nc4)ccn3n2)C1` [e-02-03], the IC50 on human IRAK-4 was 0.00223 µM; in assay [2] (Homo sapiens, THP-1, 4 h), 0.067 µM.
As to `C[C@H]1CN(CC(F)(F)F)CCN1[C@H]1C[C@@H](C(=O)Nc2cc3cc(-c4cnc(CO[C@H]5CCC[C@@H]5O)nc4)ccn3n2)C1` [e-02-04], the IC50 at human IRAK-4 is 0.00105 µM; in assay [2] (Homo sapiens, THP-1, 4 h), 0.116 µM.
Regarding `CCC(=O)N1CCN([C@H]2C[C@@H](C(=O)Nc3cc4cc(-c5cnc(CO[C@H]6CCC[C@@H]6O)nc5)ccn4n3)C2)[C@@H](C)C1` [e-02-05], the IC50 on human IRAK-4 turned out to be 0.00114 µM; in assay [2] (Homo sapiens, THP-1, 4 h), 0.123 µM.
As for `C[C@H]1CN(C(=O)C2CCC2)CCN1[C@H]1C[C@@H](C(=O)Nc2cc3cc(-c4cnc(CO[C@H]5CCC[C@@H]5O)nc4)ccn3n2)C1` [e-02-06], the IC50 on human IRAK-4 was 0.0013 µM; in assay [2] (Homo sapiens, THP-1, 4 h), 0.113 µM.
As for `CC(C)C(=O)N1CCN([C@H]2C[C@@H](C(=O)Nc3cc4cc(-c5cnc(CO[C@H]6CCC[C@@H]6O)nc5)ccn4n3)C2)[C@@H](C)C1` [e-02-07], the IC50 at human IRAK-4 turned out to be 0.00133 µM; in assay [2] (Homo sapiens, THP-1, 4 h), 0.152 µM.
Take `CC(=O)N1CCN([C@H]2C[C@@H](C(=O)Nc3cc4cc(-c5cnc(CO[C@H]6CCC[C@@H]6O)nc5)ccn4n3)C2)[C@@H](C)C1` [e-02-08]: the IC50 against human IRAK-4 worked out at 0.00132 µM; in assay [2] (Homo sapiens, THP-1, 4 h) it was 0.165 µM.
For the compound `C[C@H]1CN(C(=O)c2ccccc2)CCN1[C@H]1C[C@@H](C(=O)Nc2cc3cc(-c4cnc(CO[C@H]5CCC[C@@H]5O)nc4)ccn3n2)C1` [e-02-09], the half-inhibitory concentration (IC50) at human IRAK-4 came out at 0.00109 µM; in assay [2] (Homo sapiens, THP-1, 4 h), 0.065 µM.
Regarding `C[C@H]1CN(C(=O)C2CC2)CCN1[C@H]1C[C@@H](C(=O)Nc2cc3cc(-c4cnc(CO[C@H]5CCC[C@@H]5O)nc4)ccn3n2)C1` [e-02-10], the concentration for half-maximal inhibition (IC50) on human IRAK-4 amounted to 0.00109 µM; in assay [2] (Homo sapiens, THP-1, 4 h) it was 0.131 µM.
With `CC(C)[C@H]1COCCN1[C@H]1C[C@@H](C(=O)Nc2cc3cc(-c4cnc(CO[C@H]5CCC[C@@H]5O)nc4)ccn3n2)C1` [e-02-11], the 50% inhibitory concentration (IC50) against human IRAK-4 was 0.00104 µM; in assay [2] (Homo sapiens, THP-1, 4 h) it was 0.095 µM.
`C[C@H]1CN(C(=O)c2cccnc2)CCN1[C@H]1C[C@@H](C(=O)Nc2cc3cc(-c4cnc(CO[C@H]5CCC[C@@H]5O)nc4)ccn3n2)C1` [e-02-12]: the 50% inhibitory concentration (IC50) came out at 0.0019 µM against human IRAK-4 and 0.129 µM in assay [2] (4 hours).
For the compound `CCCOCc1ncc(-c2ccn3nc(NC(=O)[C@H]4C[C@@H](N5CCN(C(=O)c6ccnc(C)c6)C[C@@H]5C)C4)cc3c2)cn1` [e-02-14], the half-maximal inhibitory concentration (IC50) turned out to be 0.00164 µM on human IRAK-4 and 0.139 µM in assay [2] (Homo sapiens, THP-1, 4 h).
For `CCCOCc1ncc(-c2ccn3nc(NC(=O)[C@H]4C[C@@H](N5CCN(C(=O)C6CCOC6)C[C@@H]5CC)C4)cc3c2)cn1` (stereo partly drawn) [e-02-15], in that order: 0.00181 µM and 0.167 µM.
For `CCCOCc1ncc(-c2ccn3nc(NC(=O)[C@H]4C[C@@H](N5CCN(C(=O)c6ccc(C(F)(F)F)cn6)C[C@@H]5C)C4)cc3c2)cn1` [e-02-16], in that order: 0.00185 µM and 0.175 µM.
In the case of `CCCOCc1ncc(-c2ccn3nc(NC(=O)[C@H]4C[C@@H](N5CCN(C(=O)c6ccnc(C(F)(F)F)c6)C[C@@H]5C)C4)cc3c2)cn1` [e-02-17], the IC50 stood at 0.00136 µM against human IRAK-4 and 0.2 µM in assay [2] (Homo sapiens, THP-1, 4 h).
Turning to `CCCOCc1ncc(-c2ccn3nc(NC(=O)[C@H]4C[C@@H](N5CCN(C(=O)c6cccc(C)n6)C[C@@H]5C)C4)cc3c2)cn1` [e-02-18], the 50% inhibitory concentration (IC50) turned out to be 0.00184 µM against human IRAK-4 and 0.2 µM in assay [2] (Homo sapiens, THP-1, 4 h).
For the compound `CCCOCc1ncc(-c2ccn3nc(NC(=O)[C@H]4C[C@@H](N5CCN(C(=O)C6CCOCC6)C[C@@H]5CC)C4)cc3c2)cn1` [e-02-19], the 50% inhibitory concentration (IC50) amounted to 0.00119 µM against human IRAK-4 and 0.191 µM in assay [2] (Homo sapiens, THP-1, 4 h).
For `CCCOCc1ncc(-c2ccn3nc(NC(=O)[C@H]4C[C@@H](N5CCN(C(=O)N(C)C)C[C@@H]5C)C4)cc3c2)cn1` [e-02-20], the concentration for half-maximal inhibition (IC50) is 0.00222 µM on human IRAK-4 and 0.244 µM in assay [2] (Homo sapiens, THP-1, 4 h).
On to `CCCOCc1ncc(-c2ccn3nc(NC(=O)[C@H]4C[C@@H](N5CCN(C(=O)c6coc(C)n6)C[C@@H]5C)C4)cc3c2)cn1` [e-02-21], for which the IC50 against human IRAK-4 was 0.00173 µM; in assay [2] (Homo sapiens, THP-1, 4 h), 0.188 µM.
With `CCCOCc1ncc(-c2ccn3nc(NC(=O)[C@H]4C[C@@H](N5CCN(C(=O)c6ccc(Cl)cn6)C[C@@H]5C)C4)cc3c2)cn1` [e-02-22], the IC50 came to 0.00129 µM on human IRAK-4 and 0.106 µM in assay [2] (Homo sapiens, THP-1, 4 h).
For the compound `CCCOCc1ncc(-c2ccn3nc(NC(=O)[C@H]4C[C@@H](N5CCN(C(=O)c6cc(C)nc(C)c6)C[C@@H]5C)C4)cc3c2)cn1` [e-02-23], the IC50 on human IRAK-4 is 0.00088 µM; in assay [2] (Homo sapiens, THP-1, 4 h) it was 0.111 µM.
With `Cc1nc(C(=O)N2CCN([C@H]3C[C@@H](C(=O)Nc4cc5cc(-c6cnc(CO[C@H]7CCC[C@@H]7O)nc6)ccn5n4)C3)[C@@H](C)C2)co1` [e-02-24], the IC50 on human IRAK-4 came out at 0.00127 µM; in assay [2] (Homo sapiens, THP-1, 4 h) it was 0.117 µM.
For `C[C@H]1CN(C(=O)c2ccc(Cl)cn2)CCN1[C@H]1C[C@@H](C(=O)Nc2cc3cc(-c4cnc(CO[C@H]5CCC[C@@H]5O)nc4)ccn3n2)C1` [e-02-25], the 50% inhibitory concentration (IC50) against human IRAK-4 came out at 0.00158 µM; in assay [2] (Homo sapiens, THP-1, 4 h) it was 0.053 µM.
`C[C@H]1CN(C(=O)c2ccon2)CCN1[C@H]1C[C@@H](C(=O)Nc2cc3cc(-c4cnc(CO[C@H]5CCC[C@@H]5O)nc4)ccn3n2)C1` [e-02-26]: the half-inhibitory concentration (IC50) on human IRAK-4 worked out at 0.00186 µM; in assay [2] (Homo sapiens, THP-1, 4 h), 0.08 µM.
On to `Cc1cc(C(=O)N2CCN([C@H]3C[C@@H](C(=O)Nc4cc5cc(-c6cnc(CO[C@H]7CCC[C@@H]7O)nc6)ccn5n4)C3)[C@@H](C)C2)cc(C)n1` [e-02-27], for which the 50% inhibitory concentration (IC50) came out at 0.00138 µM against human IRAK-4 and 0.054 µM in assay [2] (Homo sapiens, THP-1, 4 h).
Take `COc1c(-c2cnc(CO[C@H]3CCC[C@@H]3O)nc2)ccn2nc(NC(=O)C3CC3)cc12` [e-04-01, N-(5-(2-((((1S,2S)-2-Hydroxycyclopentyl)oxy)methyl)pyrimidin-5-yl)-4-methoxypyrazolo[1,5-a]pyridin-2-yl)cyclopropanecarboxamide]: the 50% inhibitory concentration (IC50) against human IRAK-4 is 0.00374 µM; in assay [2] (Homo sapiens, THP-1, 4 h), 0.431 µM.
In the case of `COc1c(-c2cnc(CO[C@H]3CCC[C@H]3O)nc2)ccn2nc(NC(=O)C3CC3)cc12` [e-04-02], the IC50 against human IRAK-4 was determined as 0.00107 µM; in assay [2] (4 hours), 0.314 µM.
